{"source": "patent US20100279935A1", "about": "“COMPOSITIONS FOR INDUCING LABOR AND ASSOCIATED METHODS” (priority 2007, published 2010)", "type_in_all_cases": "cell-based, human", "key": {"[1]": {"test_system": "myosin light chain phosphorylation (Ser19) in hTERT cells", "assay": "Western blot for phosphorylated myosin light chain at Ser19", "protocol": "(§1) Telomerase immortalized myometrial cells (hTert) were maintained in DMEM/F12 (Mediatech) medium with 10% FBS (Hyclone) with penicillin/streptomycin and gentamycin at 37° C. and 5% CO2. Cells were trypsinized at 90% confluency and plated in T175 cell culture flasks at a 1:5 dilution or 6 well plates at 20,000 cells per well. For pharmacological experiments cells were treated with iodo-melatonin (Tocris; USA), oxytocin (Sigma-Aldrich; USA) or cotreated as described in the Results. Pharmacological inhibitors, 4-phenyl-2-propionamidotetralin (4P-PDOT), a MT2R specific antagonist, the general PKC inhibitor C1, and the phospholipase C inhibitor, U73122 (all from Tocris) were applied as a pretreatment 1 hr prior to application of IMEL or OT. After treatment the cells were trypsinized, pelleted, washed in phosphate-buffered saline, and frozen at −20° C. until further analysis.\nFor in vitro investigations cultured hTERT cells were collected by trypsinization and gentle scraping. Cells were suspended in PBS and pelleted by centrifugation. Protein extraction was performed according to the method of Shearman and colleagues^15. Following electrophoretic separation on a 10% SDS-polyacrylamide gel, proteins were semi-dry blotted in buffer onto a Whatman PROTRAN Nitrocellulose membrane (Whatman; Germany). Molecular size markers (Amersham) were included. The membrane was incubated for 60 min at 20° C. in blocking buffer containing 5% milk powder before overnight incubation at 4° C. with anti-OTR, anti-MT2R (Santa Cruz Biotechnology), anti-Cx43 antiserum (Millipore) or anti-actin (Sigma) at a dilution of 1:1000 in blocking buffer. Following washing in buffer (20 mM Tris, pH 7.6+[…] NaCl+0.05% Tween-20), the membrane was incubated at 20° C. for 1 h with a peroxidase-conjugated affinity purified goat anti-rabbit immunoglobulin (Sigma) in a 1:2000 dilution. Chemiluminescent signals were then detected with the Pierce ECL Western Blotting Substrate (Pierce; USA) using CL-X Posure film (Pierce). Western blotting for phospho-myosin light chain kinase (Ser19) (Millipore) was performed with the following exceptions. Membranes were blocked with a 5% BSA/TBS solution for one hour. The primary antibody was diluted in TBS at a 1:500 dilution at 4° C. overnight with shaking. The goat anti-rabbit immunoglobulin was diluted 1:2000 in a 5% milk/TBST solution. Densitometric analysis was performed using AIS Image Analysis software (Ontario, Canada) of images acquired with a digital camera. Criterion for assessment of samples as immunonegative was the absence of a band after 1 hr of exposure. Western blots were repeated a minimum of three times to insure reproducibility."}, "[2]": {"test_system": "gap junction communication in hTERT cells", "assay": "Lucifer yellow dye migration (scrape loading) assay", "protocol": "Lucifer yellow scrape loading assays were performed in accordance with the procedures of El-Fouly et al^17. Cells were grown to confluency in […] cell culture dishes, washed with warm phosphate buffered saline (PBS) and treated with 2 mL of pre-warmed 0.05% lucifer yellow in PBS solution. The cells were then scraped by drawing a scalpel across the plate. After two minutes at room temperature the plates were washed three times with prewarmed PBS and returned to normal medium. The plates were then photographed at 10 minutes after scraping using a digital camera through a Zeiss Axiovert 40CFL Microscope at a 100× and 200× magnification. Each treatment condition was repeated three times to ensure reproducibility."}, "[3]": {"test_system": "connexin 43 mRNA in hTERT cells", "assay": "Quantitative PCR of Cx43 mRNA", "conditions": "for effect of inhibitor on I-MEL-induced Cx43 expression: co-treatment with I-MEL (FIG. 3C)", "protocol": "as §1\nCellular total RNA was extracted with the RNEasy® kit (QIAGEN; Valencia, Calif., USA) according to the manufacturer's protocol. The RNA concentration was measured with the Nanodrop® photometer and then reverse transcribed to cDNA by means of the iScript® reverse transcription system (Bio-Rad Laboratories; USA). Quantitative real-time PCR was performed on a Bio-Rad iCycler® using iQ SYBR Green Supermix® (Bio-Rad), together with 1 μl of sense and antisense primers ([…]) of the transcript of interest and 2 μl of template cDNA. The following thermal cycling parameters were used: initial heat activation of the DNA-polymerase was performed at 95° C. for 5 min. Thereafter 40 cycles at 95° C. (15 sec), 58° C. (30 sec), and 72° C. (30 sec) were run. After thermocycling the iCycler performs an automatic melting curve, which entails cooling to 55° C. for 10 sec and then increasing temperatures in 0.2° C. increments up to 90° C. This controls for primer-dimer formation and other nonspecific effects. Quantification of the data was achieved by the Bio-Rad iCycler software using a standard curve from a primer-specific dilution series for the PCR product. Data were normalized against expression of the housekeeping gene glyceraldehyde-3-phosphate dehydrogenase (GAPDH). The primer sequences used for Cx43, and GAPDH quantification are as follows: […]"}, "[4]": {"test_system": "hTERT myometrial smooth muscle cells", "assay": "Myometrial cell contractility assay (collagen disk retraction)", "conditions": "for effect of inhibitor on contractility of cells treated with OT, I-MEL or both: pretreatment 1 hr, 4P-PDOT 10 nM, C1 10 μM, U73122 concentration not given", "protocol": "as §1\nMyometrial cell contractility was assayed using a collagen disk retraction assay as described by Devost and Zingg^16 plating 10,000 hTERT cells per well. Samples were treated as described in the Results and each treatment was performed in triplicate. Myometrial cell contractility was quantified by capturing images of the fixed collagen disks with a digital camera and analyzing for total area using AIS Image Analysis Software (Ontario, Canada). The results were normalized to the cell-free control sample areas and expressed as a percentage of untreated control area."}, "[5]": {"test_system": "connexin 43 protein in hTERT cells", "assay": "Western blot of Cx43 protein", "conditions": "I-MEL-treated hTERT cells (FIG. 3B)", "protocol": "as §1\nFor in vitro investigations cultured hTERT cells were collected by trypsinization and gentle scraping. Cells were suspended in PBS and pelleted by centrifugation. Protein extraction was performed according to the method of Shearman and colleagues^15. […] Chemiluminescent signals were then detected with the Pierce ECL Western Blotting Substrate (Pierce; USA) using CL-X Posure film (Pierce). […]"}}, "note": "“Also recorded” adds a separate entry of the source.", "data": [{"smiles": "CC[C@H](C)[C@@H]1NC(=O)[C@H](Cc2ccc(O)cc2)NC(=O)[C@@H](N)CSSC[C@@H](C(=O)N2CCC[C@H]2C(=O)N[C@@H](CC(C)C)C(=O)NCC(N)=O)NC(=O)[C@H](CC(N)=O)NC(=O)[C@H](CCC(N)=O)NC1=O", "note": "[OT, oxytocin]", "values": [{"measurement": "myosin light chain phosphorylation, OT treatment", "setting": "[1]; OT, hTERT cells (FIG. 2D)", "value": "increases"}]}, {"smiles": "CCC(=O)NC1Cc2ccccc2C(c2ccccc2)C1", "note": "(centres unmarked) [4P-PDOT, 4-phenyl-2-propionamidotetralin]", "values": [{"measurement": "effect of inhibitor pretreatment on I-MEL-increased dye spread", "setting": "[2]; 10 nM 4P-PDOT or 10 μM C1 before I-MEL", "value": "blocked"}, {"measurement": "dye migration, inhibitor alone", "setting": "[2]; 4P-PDOT or C1 alone, data not shown", "value": "dye migration comparable to control levels"}, {"measurement": "effect of inhibitor pretreatment on I-MEL-induced myosin light chain phosphorylation", "setting": "[1]; 10 nM 4P-PDOT or 10 μM C1 pretreatment", "value": "abolished"}, {"measurement": "effect of inhibitor on I-MEL-induced Cx43 expression", "setting": "[3]", "value": "abolished the effect of I-MEL on Cx43 expression"}, {"measurement": "effect of inhibitor on contractility of cells treated with OT, I-MEL or both", "setting": "[4]", "value": "reduced the synergistic effect of I-MEL to levels corresponding to treatment with OT alone"}]}, {"smiles": "COc1ccc2[nH]c(I)c(CCNC(C)=O)c2c1", "note": "[I-MEL, iodo-melatonin]", "values": [{"measurement": "cell coupling / spread of lucifer yellow dye", "setting": "[2]; 1 nM I-MEL pretreated hTERT cells, 10 minutes after scrape loading", "value": "increased levels of cell coupling"}, {"measurement": "effect of I-MEL on OT-induced myosin light chain phosphorylation", "setting": "[1]; 1 nM I-MEL with OT, hTERT cells (FIG. 2D)", "value": "increased dramatically"}, {"measurement": "myosin light chain phosphorylation, I-MEL treatment alone", "setting": "[1]; 1 nM I-MEL, hTERT cells (FIG. 2D)", "value": "modest increases in myosin light chain phosphorylation"}, {"measurement": "Cx43 mRNA levels after 4 hrs", "setting": "[3]; 1 nM I-MEL, 4 hrs, hTERT cells", "value": "significant, but transient increases; also recorded: elevated"}, {"measurement": "Cx43 mRNA levels after 8 hrs", "setting": "[3]; 1 nM I-MEL, 8 hrs, hTERT cells", "value": "returned to untreated levels"}, {"measurement": "Cx43 protein levels", "setting": "[5]", "value": "upregulation of Cx43 protein levels"}, {"measurement": "increase in contractility compared to treatment with OT alone", "setting": "[4]; co-treatment 1 nM I-MEL and 1 nM OT, hTERT cells", "value": "two-fold"}, {"measurement": "contractility by I-MEL alone", "setting": "[4]; hTERT cells, I-MEL without OT", "value": "modest increases in hTERT contractility"}, {"measurement": "effect of I-MEL on OT-induced contractility and sensitivity to OT", "setting": "[4]; hTERT cells, OT co-treated with I-MEL (FIG. 2A)", "value": "increase OT-induced contractility in a dose dependent manner"}]}, {"smiles": "COc1ccc2c(c1)CC[C@@H]1[C@@H]2CC[C@]2(C)[C@@H](NCCCCCCN3C(=O)C=CC3=O)CC[C@@H]12", "note": "[U73122]", "values": [{"measurement": "effect of inhibitor on I-MEL-induced Cx43 expression", "setting": "[3]", "value": "abolished the effect of I-MEL on Cx43 expression"}, {"measurement": "effect of inhibitor on contractility of cells treated with OT, I-MEL or both", "setting": "[4]", "value": "completely abolished contractility"}]}]}
